Patent US8487001B2, “Medium-chain length fatty acids, glycerides and analogues as neutrophil survival and activation factors” (ProMetic BioSciences Inc., priority 2001, dated 2013)

Key:
[1] = system: B16F10 melanoma; assay: Antitumor activity in B16F10 melanoma model; assay type: in vivo, C57BL/6 mice; conditions: FIG. 10; MCT 25 μMole/mouse i.v. day 7, 9, 14, 16; doxorubicin 10 mg/kg day 10 and 17 (sub-therapeutic); day 22
Protocol: Female 6-8-week old C57BL/6 mice were injected intravenously on day 0 with 1×10^5 B16F10 melanoma cells from ATCC (source of cell culture, Dr. I. J. Fidler). […] Mice were sacrificed on day 22. Body weight and tumor volume were recorded.

[2] = system: neutrophils (PMN); assay: Doxorubicin-induced neutrophil apoptosis, 4 hr incubation with or without MCT; assay type: cell-based, human
Protocol: (§1) PMN were isolated as described in example 10. Cells (2×10^6/ml) were incubated for 4 hr, at 37° C. in 5% CO2 and 95% humidity in the presence of various concentrations of a chemotherapeutic agent, doxorubicin. Apoptotic cells were evaluated as described in example 10. Data are expressed in percent of apoptotic cells.
as §1, with “doxorubicin with or without MCT (2.5% and 5.0%).” for “a chemotherapeutic agent, doxorubicin.”
Results are expressed in percent of apoptotic cells after 4 hr of incubation in the presence or the absence of doxorubicin with or without MCT. […] However, in the presence of MCT, at a concentration of 2.5% and 5% (v/v), the apoptotic effects of doxorubicin are inhibited. Thus, MCT exerts an anti-apoptotic action on PMN. Apoptosis was also studied using the annexin V-FITC/PI (propidium iodide) to method according to the manufacturer's Biosources recommendations (Apotarget Annexin-VFITC Apoptosis Kit #PHN 1018). Annexin V binds to phosphatidylserine which is transferred from the internal to external membrane in early to late phase apoptosis. Briefly, neutrophils are incubated in the presence or absence of varying concentrations of doxorubicin and MCT. After 24 hr, neutrophils are washed with PBS and stained with […] of Annexin V-FITC and 10 μl of PI (Sigma, 1 mg/ml) for 20 minutes. After incubation, stained cells were fixed in paraformaldehyde (1%) and analyzed for apoptosis using an XL Flow Cytometer (Coulter). Data were then expressed as the percent of apoptotic cells. FIG. 4A represents a time-course response of MCT on doxorubicin-treated neutrophils.

[3] = Doxorubicin-induced neutrophil apoptosis, comparison to GM-CSF (% PMN viability); assay type: cell-based, human; conditions: human
Text: Table 2 represents the effect of GM-CSF, MCT and tricaprylin on doxorubicin-induced human neutrophil apoptosis.

COc1cccc2c1C(=O)c1c(O)c3c(c(O)c1C2=O)C[C@@](O)(C(=O)CO)C[C@@H]3O[C@H]1C[C@H](N)[C@H](O)[C@H](C)O1 [Doxorubicin, doxorubicin]
reduction of the tumor volume [1]: around 25% | % Apoptosis of neutrophils (PMN) ([2]; Experiment 1, doxorubicin 10^-4 M alone (Control, no MCT)): 27.5% | % Apoptosis of neutrophils (PMN) ([2]; Experiment 1, doxorubicin 10^-5 M alone (Control, no MCT)): 23.8% | % Apoptosis of neutrophils (PMN) ([2]; Experiment 1, doxorubicin 10^-6 M alone (Control, no MCT)): 23.2% | % Apoptosis of neutrophils (PMN) ([2]; Experiment 1, doxorubicin 10^-8 M alone (Control, no MCT)): 18.7% | % Apoptosis of neutrophils (PMN) ([2]; Experiment 1, doxorubicin 10^-10 M alone (Control, no MCT)): 9.3% | % Apoptosis of neutrophils (PMN) ([2]; Experiment 2, doxorubicin 10^-4 M alone (Control, no MCT)): 53.2% | % Apoptosis of neutrophils (PMN) ([2]; Experiment 2, doxorubicin 10^-5 M alone (Control, no MCT)): 66.2% | % Apoptosis of neutrophils (PMN) ([2]; Experiment 2, doxorubicin 10^-6 M alone (Control, no MCT)): 55.0% | % Apoptosis of neutrophils (PMN) ([2]; Experiment 2, doxorubicin 10^-8 M alone (Control, no MCT)): 59.2% | % Apoptosis of neutrophils (PMN) ([2]; Experiment 2, doxorubicin 10^-10 M alone (Control, no MCT)): 60.6% | effect on PMN apoptosis ([2]; various concentrations of doxorubicin, FIGS. 3A and 3B): induces PMN apoptosis | viability [3]: 6.82 ± 0.5%
